Activity calls are given as the source filed them. The rule behind the calls is not given here.
Experiments:
[1] = target: T1, Estrogen receptor (Homo sapiens) (UniProt P03372); test: Activation of ERalpha in human MCF7/2a cells pre-exposed to compound 1 to 3 hrs before 0.1 uM 4-OHT addition by luciferase reporter gene assay relative to untreated control; format: cell-based
T1 sequence (whole entry): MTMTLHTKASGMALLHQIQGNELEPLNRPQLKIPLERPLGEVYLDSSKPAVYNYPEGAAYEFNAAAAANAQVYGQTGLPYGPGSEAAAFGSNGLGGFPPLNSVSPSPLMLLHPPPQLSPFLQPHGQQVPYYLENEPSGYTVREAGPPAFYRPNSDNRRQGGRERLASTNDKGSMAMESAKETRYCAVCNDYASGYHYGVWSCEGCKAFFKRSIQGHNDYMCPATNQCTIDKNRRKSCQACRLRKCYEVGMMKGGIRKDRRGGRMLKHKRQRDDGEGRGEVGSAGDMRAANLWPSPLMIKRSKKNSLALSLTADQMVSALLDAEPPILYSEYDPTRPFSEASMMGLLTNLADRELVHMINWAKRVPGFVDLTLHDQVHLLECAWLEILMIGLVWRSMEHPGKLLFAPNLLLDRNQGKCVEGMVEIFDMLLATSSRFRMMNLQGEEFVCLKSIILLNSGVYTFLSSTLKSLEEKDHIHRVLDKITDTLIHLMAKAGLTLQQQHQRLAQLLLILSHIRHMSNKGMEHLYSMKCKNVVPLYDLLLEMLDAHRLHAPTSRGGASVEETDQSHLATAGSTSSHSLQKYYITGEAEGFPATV

[2] = Chemical stability in pH 7.3 PBS buffer at 10 uM at 37 degC; format: physicochemical
[3] = target: T1, Estrogen receptor (Homo sapiens); test: Activation of ERalpha in human MCF7/2a cells in presence of 0.1 uM 4-OHT by luciferase reporter gene assay relative to untreated control; format: cell-based
Estrogen receptor [4] = target: T2, Estrogen receptor (Homo sapiens, UniProt P03372); test: Activation of human ERalpha expressed in human U2-OS cells by luciferase reporter gene assay relative to untreated control; format: cell-based, U2OS
T2 sequence (P03372 whole entry): T1 sequence (whole entry)

Estrogen receptor [5] = target: T2, Estrogen receptor; test: Activation of ERalpha in human MCF7/2a cells by luciferase reporter gene assay relative to untreated control; format: cell-based
[6] = target: T1, Estrogen receptor (Homo sapiens); test: Antagonist activity at ERalpha in human MCF7/2a cells assessed as reduction in 1 nM estradiol-induced receptor activation by luciferase reporter gene assay relative to untreated control; format: functional, cell-based
MCF7 [7] = test: Cytotoxicity in hormone-dependent human MCF7 cells assessed as growth inhibition incubated for 4 day s by crystal violet assay; format: functional, cell-based; settings: MCF7, 96 h
MCF7 [8] = test: Down regulation of ERalpha human MCF7 cells at 10 uM by Western blotting; format: functional, cell-based
[9] = Toxicity in hormone-independent human MDA-MB-231 cells assessed as growth inhibition incubated for 4 day s by crystal violet assay; format: cell-based
MCF7 [10] = test: Stimulation of cell growth in human MCF7 cells incubated for 20 to 100 hrs by crystal violet assay; format: cell-based

Row | Activity [1] | half-life at 10 µM [2] | Activity [3] | EC50 (Estrogen receptor [4]) | EC50 (Estrogen receptor [5]) | Structure (SMILES) | Activity [6] | IC50 (MCF7 [7]) | Activity (MCF7 [8]) | IC50 at 4 days [9] | Activity (MCF7 [10])
1 | Active | 10.7 days | inactive | 0.4 nM | 50 nM | CCCn1c(-c2ccc(O)cc2)cc(-c2ccc(O)cc2)c1-c1ccc(O)cc1 |  |  |  |  | 
2 |  |  |  | 0.84 nM | 26 nM | CCCn1c(-c2ccc(O)cc2)cc(-c2ccc(O)cc2F)c1-c1ccc(O)cc1 | inactive |  | Active |  | 
3 | Active | 7.04 days | inactive | 1.6 nM | 70 nM | CCCc1c(-c2ccc(O)cc2)cn(-c2ccc(O)cc2)c1-c1ccc(O)cc1 |  |  |  |  | 
4 |  |  |  | 0.31 nM | 63 nM | CCCn1c(-c2ccc(O)cc2)cc(-c2ccc(O)cc2)c1-c1ccc(O)cc1Cl | inactive |  | Active |  | 
5 | Active |  | inactive | 0.27 nM | 30 nM | CCCn1c(-c2ccc(O)cc2F)cc(-c2ccc(O)cc2)c1-c1ccc(O)cc1F | inactive |  | Active | 20900 nM | 
6 |  |  |  | 0.67 nM | 240 nM | CCCn1c(-c2ccc(O)cc2F)cc(-c2ccc(O)cc2)c1-c1ccc(O)cc1 | inactive |  | Active |  | 
7 |  | 31 days |  | 0.12 nM | 70 nM | CCCn1c(-c2ccc(O)cc2)cc(-c2ccc(O)cc2)c1-c1ccc(O)cc1F | inactive |  | Active |  | 
8 |  | 61.4 days |  | 47 nM |  | CCCn1c(-c2ccc(O)cc2Cl)cc(-c2ccc(O)cc2)c1-c1ccc(O)cc1 | inactive |  | Active |  | 

Row | Structure (SMILES) | Activity [1] | half-life at 10 µM [2] | Activity [3] | EC50 (Estrogen receptor [4]) | EC50 (Estrogen receptor [5]) | Activity [6] | IC50 (MCF7 [7]) | Activity (MCF7 [8]) | IC50 at 4 days [9] | Activity (MCF7 [10])
9 | Cn1c(-c2ccc(O)cc2Cl)cc(-c2ccc(O)cc2)c1-c1ccc(O)cc1 |  |  |  | 100 nM |  | inactive | 23800 nM | inactive |  | 
10 | CCCn1c(-c2ccc(O)cc2F)cc(-c2ccc(O)cc2F)c1-c1ccc(O)cc1F |  | 44 days |  | 0.2 nM | 23 nM | inactive | 5600 nM | Active | 21900 nM | Non-toxic
11 | Cn1c(-c2ccc(O)cc2F)cc(-c2ccc(O)cc2)c1-c1ccc(O)cc1F |  |  |  | 15 nM | 290 nM | inactive | 8500 nM | Active |  | Non-toxic
12 | Cn1c(-c2ccc(O)cc2)cc(-c2ccc(O)cc2)c1-c1ccc(O)cc1F |  |  |  | 60 nM |  | inactive | 24700 nM | inactive |  | 
13 | Cn1c(-c2ccc(O)cc2F)cc(-c2ccc(O)cc2)c1-c1ccc(O)cc1 |  |  |  | 24 nM |  | inactive | 25500 nM | inactive |  | 
14 | CCCc1c(-c2ccc(O)cc2)nn(-c2ccc(O)cc2)c1-c1ccc(O)cc1 [PROPYLPYRAZOLETRIOL] |  |  |  | 0.1 nM | 3 nM |  | 27200 nM | Active |  | 
15 | Cn1c(-c2ccc(O)cc2)cc(-c2ccc(O)cc2)c1-c1ccc(O)cc1Cl |  |  |  | 16 nM | 600 nM | inactive | 19100 nM | Active |  | 

— ChEMBL document CHEMBL2176980, “Influence of chlorine or fluorine substitution on the estrogenic properties of 1-alkyl-2,3,5-tris(4-hydroxyphenyl)-1H-pyrroles” (J Med Chem, 2012)
